# Measurements taken from patent US20250270648A1, “MOLECULAR SIGNATURE FOR ASSESSING THE RESPONSIVENESS OF CANCER TO MITOCHONDRIA-TARGETED ANTIOXIDANTS” (UNIVERSITÉ CATHOLIQUE DE LOUVAIN, priority 2021, published 2025).
# How the values were obtained:
# MCF7 cells [1] = test: Migration towards 0.5% serum, chemotaxis chamber; assay type: cell-based, human; conditions: low dose DXR, 0.1 μg/mL, 16 h pretreatment, 6 h recovery
# Experimental: (§1) Previous to migration and invasion assays, cells were pretreated with the indicated amounts of drugs for 16 h, and left to recover for 6 h in full culture medium. Migration assays were performed in a NeuroProbe® standard 48-well chemotaxis chamber according to manufacturer's instructions. Briefly, the bottom chamber was filled with DMEM containing 0.5% serum as a chemo-attractant. Fifty thousand cells were seeded in the upper chamber in the same medium but without serum ±MitoQ where indicated, and allowed to migrate overnight through an 8-μm pore-size polycarbonate membrane. A similar stimulation protocol was used for invasion assays, with the difference of using Matrigel-coated transwells (Corning®). With MCF7 cells, membranes were previously incubated for 30 min with a solution of Vitronectin 10 μg/ml (Sigma-Aldrich®, #SRP3186). Migrated/invaded cells were fixed and stained with 100 μl of a 0.23% crystal violet solution (Sigma-Aldrich®, #C0775) for 10 min before counting on a SpectraMax™ i3 spectrophotometer equipped with a MiniMax imaging cytometer, using the SoftMax Pro software. Data were normalized to vehicle-treated cells (control).
# 4T1 cells [2] = test: Glucose uptake and lactate release, enzymatic; assay type: cell-based, mouse; conditions: DXR 0.1 μg/mL, 24 h
# Experimental: (§2) Cellular oxygen consumption rates (OCRs) were assessed on a Seahorse XF96® bioenergetic analyzer using the Mito Stress® Kit following manufacturer's instructions (Agilent Technologies®). Briefly, 40,000 cells were plated and left to adhere for 24 h before treatment with the indicated doses DXR. Basal mitochondrial oxygen consumption (mtOCR) was identified as the portion of OCR sensitive to 0.5 μM of Complex I inhibitor rotenone together with 0.5 μM of Complex III inhibitor antimycin A. Proton leak corresponded to the portion of mtOCR resistant to 1 μM of ATP synthase inhibitor oligomycin. Maximal OCR was determined after mitochondrial potential disruption using 1 μM of ionophore carbonyl cyanide-4-(trifluoromethoxy)phenylhydrazone (FCCP). At the end of the experiment, cells were lysed in 30 μl of NaOH 0.5 M, and proteins were quantified with the Bradford method in order to normalize data by total protein content. Lactate and glucose concentrations were measured on deproteinized cell supernatants using an ISCUSflex CMA600™ analyzer (Aurora Borealis®), as previously described (Sonveaux et al.; PLoS. One 2012; 7, e33418).
# MCF7 cells [3] = test: Glucose uptake and lactate release, enzymatic; assay type: cell-based, human; conditions: 24 h
# Experimental: as §2
# [4] = test system: murine 4T1 breast cancer cells; test: Seahorse XF96 OCR and proton leak; assay type: cell-based, mouse; conditions: 24 h
# Experimental: as §2
# 4T1 cells [5] = test: Migration towards 0.5% serum, chemotaxis chamber; assay type: cell-based, mouse; conditions: 16 h pretreatment, 6 h recovery
# Experimental: as §1
# [6] = test system: murine 4T1 breast cancer cell line; test: Mitochondrial superoxide, mitoSOX FACS; assay type: cell-based, mouse
# Experimental: (§3) Mitochondrial superoxide was measured in cells loaded with 3 μM of MitoSOX (Invitrogen®, catalogue #M36008) for 10 min at 37° C. Cells were gently detached with Accutase® (Thermo Fisher Scientific®, catalogue #A1110501), resuspended in PBS containing 10 mM of D-Glucose and 2% FBS, and immediately analyzed by flow cytometry using a FACSCantoII flow cytometer (BD Biosciences®).
# [7] = test system: human MCF7 breast cancer cells; test: Seahorse XF96 OCR and proton leak; assay type: cell-based; conditions: 24 h
# Experimental: as §2
# 4T1 cells [8] = test: Invasion, Matrigel-coated transwells; assay type: cell-based, mouse; conditions: low dose DXR, 0.1 μg/mL, 16 h pretreatment, 6 h recovery
# Experimental: as §1
# MCF7 cells [9] = test: Mitochondrial superoxide, mitoSOX FACS; assay type: cell-based, human; conditions: DXR 0.1 μg/mL, 24 h
# Experimental: as §3
# [10] = test system: human MDA-MB-231 breast cancer cell line; test: Mitochondrial superoxide, mitoSOX FACS; assay type: cell-based; conditions: increasing doses of cisplatin, 48 h
# Experimental: as §3
# 4T1 breast tumors = test: 4T1-bearing mice, doxorubicin ±MitoTEMPO; assay type: in vivo, mouse; conditions: doxorubicin 4 mg/kg i.v. weekly ×3 + MitoTEMPO 0.7 mg/kg i.p. daily; lungs day +21
# Experimental: On day −8, nine-week-old female Balb/cJRj mice (Janvier®) were injected with 200,000 viable 4T1 cells into the fourth mammary fat pad. When tumors reached an average diameter of 4 mm (day 0) and became palpable in all mice, an intravenous injection of doxorubicin (4 mg/kg) was administered once per week during 3 weeks (30) ±daily intraperitoneal injections of MitoTEMPO (0.7 mg/kg) or the same volume of vehicle (DMSO) until the end of the experiment. Tumor volume was determined three times a week using an electronic caliper and normalized to tumor volume at day 0. At the end-point (day +21), mice were sacrificed and their lungs were fixed in formalin. Tissues were stained with hematoxylin & eosin (H&E). Pictures of whole lung slides were acquired with a slide scanner (SCN400, Leica®) and analyzed with the Digital Image Hub software (DIH, Leica®). The area occupied by metastases was normalized to the lung area analyzed.
# SkBr3 cells = test: RT-qPCR of biomarker signature after SKQ1; assay type: cell-based, human; conditions: 500 nM SKQ1, 48 h
# Experimental: (§4) Total mRNA from MDA-MB-231 or SkBr-3 human breast cancer cells treated ±500 nM SKQ1 for 48 h (Alexandr V. et al. Int. J. Cancer 2016; 139, 130-139) was extracted using the Tri reagent (Brunschwig Chemie®, cat #TR118). mRNAs were quantified by NanoDrop™1000 (Thermo Fisher Scientific®), and were reverse-transcribed in complementary DNAs using the high-capacity cDNA Reverse Transcription Kit (Thermo Fisher Scientific®, cat #4368814) according to manufacturer's protocol. Complementary DNAs (500 ng per sample) were amplified by RT-qPCR using the ROX SYBR Master Mix dTTP Blue (Eurogentec®) and primers listed in Table 5 and Table 6 on a CFX96 Real Time PCR system (BioRad®). Gene expression was normalized to […] gene expression.
# MDA-MB-231 cells = test: RT-qPCR of biomarker signature after SKQ1; assay type: cell-based, human; conditions: 500 nM SKQ1, 48 h
# Experimental: as §4
# MDA-MB-436 cells = test: RT-qPCR of biomarker signature after SKQ1; assay type: cell-based, human; conditions: 500 nM SKQ1, 48 h
structure (smiles),measurement,setting,value
COc1cccc2c1C(=O)c1c(O)c3c(c(O)c1C2=O)C[C@@](O)(C(=O)CO)C[C@@H]3O[C@H]1C[C@H](N)[C@H](O)[C@H](C)O1 [doxorubicin],cell migration,MCF7 cells [1],stimulated
same,glycolysis,4T1 cells [2],little effect
same,lactate release,4T1 cells [2],significantly decreasing
same,glucose uptake,MCF7 cells [3]; DXR 0.1 μg/mL,significantly increasing
same,glycolysis,MCF7 cells [3]; DXR 0.1 to 0.01 μg/mL range,little effect
same,mtOCR,[4]; Low-dose DXR,increased
same,leak of protons at the electron transport chain (ETC),[4]; increasing doses of DXR,dose dependent leak
same,cell migration,"4T1 cells [5]; low dose DXR, 0.1 μg/mL",stimulated
same,production of mitochondrial superoxide at the ETC,"[6]; DXR 0.1 μg/mL, 24 h",increased production
same,mitochondrial oxygen consumption rate (mtOCR),"[7]; DXR low doses, 0.1 to 0.01 μg/mL",increased
same,leak of protons at the electron transport chain (ETC),[7]; increasing doses of DXR,dose dependent leak
same,cell invasion,4T1 cells [8],stimulated
same,production of mitochondrial superoxide at the ETC,MCF7 cells [9],increased production
N.N.[Cl][Pt][Cl] [cisplatin],mitochondrial superoxide production at the ETC,[10],induce
same,cancer cell migration,4T1 cells [5]; cisplatin 77.76 μM,induced
same,mitochondrial superoxide production at the ETC,"[6]; increasing doses of cisplatin, 48 h",induce
CC1(C)CC(NC(=O)C[P+](c2ccccc2)(c2ccccc2)c2ccccc2)CC(C)(C)N1[O] [MitoTEMPO],cancer metastasis in breast cancer-bearing animals treated with DXR,4T1 breast tumors,inhibit
"CC1=C(C)C(=O)C(CCCCCCCCCC[P+](c2ccccc2)(c2ccccc2)c2ccccc2)=CC1=O.[Br-] [SKQ1, [10-(4,5-dimethyl-3,6-dioxo-1,4-cyclohexadien-1-yl)decyl]triphenyl-phosphonium, monobromide]",amplitude of the change in NUPR1 expression,SkBr3 cells,+25%
same,amplitude of the change in SLC7A11 expression,SkBr3 cells,+565%
same,amplitude of the change in SOX2 expression,SkBr3 cells,−95%
same,amplitude of the change in VIM expression,SkBr3 cells,−19%
same,genes of the complete biomarker signature with the expected gene expression changes,SkBr3 cells,13 of the 15
same,SLC7A11 expression increased by,SkBr3 cells; P<0.005,6.65 fold
same,TXNRD1 expression increased by,SkBr3 cells; P<0.005,3.20 fold
same,gene expression of PCK2,SkBr3 cells; P<0.005,increased
same,gene expression of SOX2,SkBr3 cells; P<0.005,decreased
same,PHGDH-1 expression increased by,SkBr3 cells; P<0.01,2.26 fold
same,PSAT1 expression increased by,SkBr3 cells; P<0.01,2.26 fold
same,gene expression of ASNS,SkBr3 cells; P<0.01,increased
same,gene expression of ZEB1,SkBr3 cells; P<0.05,decreased
same,SERPINE1 expression increased by,SkBr3 cells; P=0.0732,1.45 fold
same,expected gene expression changes that were statistically significant,SkBr3 cells; among 13 genes,8
same,gene expression of NANOG,"SkBr3 cells; not significant, P=0.1539",decreased
same,gene expression of NUPR1,"SkBr3 cells; not significant, P=0.2615",increased
same,gene expression of VIM,"SkBr3 cells; not significant, P=0.3557",decreased
same,gene expression of G6PD,SkBr3 cells; only 2 replicates,increased
same,amplitude of the change in NUPR1 expression,MDA-MB-231 cells,+676%
same,amplitude of the change in SERPIN1 expression,MDA-MB-231 cells,+63%
same,amplitude of the change in SNAI1 expression,MDA-MB-231 cells,−21%
same,amplitude of the change in SOX2 expression,MDA-MB-231 cells,−52%
same,genes of the complete biomarker signature with the expected gene expression changes,MDA-MB-231 cells,12 of the 15
same,PHGDH-1 expression increased by,MDA-MB-231 cells; P<0.005,5.36 fold
same,PSAT1 expression increased by,MDA-MB-231 cells; P<0.005,3.43 fold
same,SLC7A11 expression increased by,MDA-MB-231 cells; P<0.005,2.35 fold
same,TXNRD1 expression increased by,MDA-MB-231 cells; P<0.005,1.69 fold
same,gene expression of ASNS,MDA-MB-231 cells; P<0.005,increased
same,gene expression of G6PD,MDA-MB-231 cells; P<0.005,increased
same,gene expression of NUPR1,MDA-MB-231 cells; P<0.005,increased
same,gene expression of PCK2,MDA-MB-231 cells; P<0.005,increased
same,gene expression of SLC6A9,MDA-MB-231 cells; P<0.005,increased
same,gene expression of SOX2,MDA-MB-231 cells; P<0.005,decreased
same,SERPINE1 expression increased by,MDA-MB-231 cells; P<0.01,1.63 fold
same,expected gene expression changes that were statistically significant,MDA-MB-231 cells; among 12 genes,11
same,gene expression of SNAI1,"MDA-MB-231 cells; not significant, P=0.4575",decreased
same,amplitude of the change in ASNS expression,MDA-MB-436 cells,+526%
same,amplitude of the change in G6PD expression,MDA-MB-436 cells,+22%
same,amplitude of the change in SNAI1 expression,MDA-MB-436 cells,−12%
same,amplitude of the change in SOX2 expression,MDA-MB-436 cells,−67%
same,genes of the complete biomarker signature with the expected gene expression changes,MDA-MB-436 cells,14 of the 15
same,PHGDH-1 expression increased by,MDA-MB-436 cells; P<0.005,2.51 fold
same,PSAT1 expression increased by,MDA-MB-436 cells; P<0.005,2.53 fold
same,TXNRD1 expression increased by,MDA-MB-436 cells; P<0.005,2.11 fold
same,gene expression of ASNS,MDA-MB-436 cells; P<0.005,increased
same,gene expression of NUPR1,MDA-MB-436 cells; P<0.005,increased
same,gene expression of PCK2,MDA-MB-436 cells; P<0.005,increased
same,gene expression of SLC6A9,MDA-MB-436 cells; P<0.005,increased
same,SERPINE1 expression increased by,MDA-MB-436 cells; P<0.01,1.46 fold
same,SLC7A11 expression increased by,MDA-MB-436 cells; P<0.01,3.60 fold
same,gene expression of SOX2,MDA-MB-436 cells; P<0.05,decreased
same,expected gene expression changes that were statistically significant,MDA-MB-436 cells; among 14 genes,10
same,gene expression of G6PD,"MDA-MB-436 cells; not significant, P=0.0974",increased
same,gene expression of NANOG,"MDA-MB-436 cells; not significant, P=0.5663",decreased
same,gene expression of SNAI1,"MDA-MB-436 cells; not significant, P=0.6013",decreased
same,gene expression of ZEB1,"MDA-MB-436 cells; not significant, P=0.6890",decreased
